Reference: paper PMC9632963, “Preclinical characterization and phase I clinical trial of CT053PTSA targets MET, AXL, and VEGFR2 in patients with advanced solid tumors” (Frontiers in Immunology, 2022)

Tested on: patients with advanced solid tumors
Assay: Phase I trial: safety, tolerability, DLT, MTD (CTCAE v4.0)
Type: in vivo
Description: Eligible patients had at least one measurable lesion per RECIST v 1.1, Eastern Cooperative Oncology Group (ECOG) performance status of 0 or 1, and adequate hematological, renal, cardiac and hepatic functions. The primary objectives were to assess safety and tolerability as well as to determine the MTD, DLT, and dose recommended for further study. The secondary objectives were to assess the PK and preliminary efficacy of CT053PTSA.
An initial accelerated titration design was used in the 15 and 30 mg QD cohorts, and the “3+3” schema was used starting in the 60 mg QD cohort. […] The study protocol was approved by an institutional review board at Sun Yat-sen University Cancer Center. Written informed consent was obtained from all the patients before enrollment.
Descriptive statistics of safety are presented per CTCAE v4.0. Subjects who received at least one dose of CT053PTSA were considered eligible to be evaluated and included in safety analyses. […] According to the RECIST 1.1 criteria, imaging examinations were performed at each specified time point in the protocol. The antitumor activity was measured by RECIST1.1.

Cc1c(C(=O)Nc2ccc(Oc3ccnc4cc(OCC(C)(C)O)ccc34)c(F)c2)c(=O)n(-c2ccccc2)n1C [CT053PTSA]
65%: TRAE any grade: transaminase elevation (all patients n = 20)
1 (20) n (%): Blood creatinine increased, All (150mg (n = 5)) | Blood potassium decreased, All (150mg (n = 5)) | Blood sodium decreased, All (150mg (n = 5)) | Blood sodium decreased, ≥ G3 (150mg (n = 5)) | Blood uric acid increased, All (150mg (n = 5)) | Decreased appetite, ≥ G3 (150mg (n = 5)) | Diarrhea, All (150mg (n = 5)) | Electrocardiogram QT prolonged, All (150mg (n = 5)) | Electrolyte imbalance, All (150mg (n = 5)) | Hemoglobin decreased, All (150mg (n = 5)) | Hypertension, ≥ G3 (150mg (n = 5)) | Hypoparathyroidism, All (150mg (n = 5)) | Mouth ulceration, All (150mg (n = 5)) | Nausea, All (150mg (n = 5)) | Platelet count decreased, All (150mg (n = 5)) | Platelet count decreased, ≥ G3 (150mg (n = 5)) | Pyrexia, All (150mg (n = 5)) | Sinus bradycardia, All (150mg (n = 5)) | Stomatitis, All (150mg (n = 5)) | Stomatitis, ≥ G3 (150mg (n = 5)) | Vomiting, All (150mg (n = 5)) | leukopenia, ≥ G3 (150mg (n = 5))
80%: patients with treatment-related adverse events (TRAEs) (all patients n = 20)
9 (45) n (%): leukopenia, All (All (n = 20))
2 (28.6) n (%): Decreased appetite, All (100mg (n = 7)) | Hypertension, All (100mg (n = 7))
1/6 and one out of six: patients with DLT / patients eligible for DLT assessment (100 mg QD)
4 (57.1) n (%): Platelet count decreased, All (100mg (n = 7)) | leukopenia, All (100mg (n = 7)) | neutropenia, All (100mg (n = 7))
3 (60) n (%): Decreased appetite, All (150mg (n = 5)) | leukopenia, All (150mg (n = 5))
15%: patients with grade 3 TRAEs (all patients n = 20)
2 (40) n (%): Hypertension, All (150mg (n = 5)) | neutropenia, All (150mg (n = 5))
20%: TRAE any grade: hypertension (all patients n = 20)
60~100 mg QD: recommended dose for further study (in vivo)
95%: patients with at least one adverse event (AE) (all patients n = 20)
30%: TRAE any grade: decreased appetite (all patients n = 20) | TRAE any grade: decreased platelet count (all patients n = 20)
10%: grade 3 TRAE: decreased platelet count (all patients n = 20)
6 (85.7) n (%): transaminase elevation, All (100mg (n = 7))
1 (14.3) n (%): Diarrhea, All (100mg (n = 7)) | Dizziness, All (100mg (n = 7)) | Dry mouth, All (100mg (n = 7)) | Electrocardiogram QT prolonged, All (100mg (n = 7)) | Hyponatremia, All (100mg (n = 7)) | Nausea, All (100mg (n = 7)) | Oropharyngeal pain, All (100mg (n = 7)) | Pain, All (100mg (n = 7)) | Palmar-plantar erythrodysaesthesia syndrome, All (100mg (n = 7)) | Platelet count decreased, ≥ G3 (100mg (n = 7)) | Proteinuria, All (100mg (n = 7)) | Stomatitis, All (100mg (n = 7)) | transaminase elevation, ≥ G3 (100mg (n = 7))
2/4 and Two of four: patients with DLT / patients eligible for DLT assessment (150 mg QD)
45%: TRAE any grade: leukopenia (all patients n = 20)
3 (15) n (%): Electrocardiogram QT prolonged, All (All (n = 20))
2 (10) n (%): Diarrhea, All (All (n = 20)) | Hyponatremia, All (All (n = 20)) | Nausea, All (All (n = 20)) | Platelet count decreased, ≥ G3 (All (n = 20)) | Stomatitis, All (All (n = 20))
0 n (%): Blood sodium decreased, ≥ G3 (100mg (n = 7)) | Blood uric acid increased, All (100mg (n = 7)) | Blood uric acid increased, ≥ G3 (100mg (n = 7)) | Decreased appetite, ≥ G3 (100mg (n = 7)) | Diarrhea, ≥ G3 (100mg (n = 7)) | Dizziness, ≥ G3 (100mg (n = 7)) | Dry mouth, ≥ G3 (100mg (n = 7)) | Electrocardiogram QT prolonged, ≥ G3 (100mg (n = 7)) | Electrolyte imbalance, All (100mg (n = 7)) | Electrolyte imbalance, ≥ G3 (100mg (n = 7)) | Hemoglobin decreased, All (100mg (n = 7)) | Hemoglobin decreased, ≥ G3 (100mg (n = 7)) | Hypertension, ≥ G3 (100mg (n = 7)) | Hyponatremia, ≥ G3 (100mg (n = 7)) | Hypoparathyroidism, All (100mg (n = 7)) | Hypoparathyroidism, ≥ G3 (100mg (n = 7)) | Mouth ulceration, All (100mg (n = 7)) | Mouth ulceration, ≥ G3 (100mg (n = 7)) | Nausea, ≥ G3 (100mg (n = 7)) | Oropharyngeal pain, ≥ G3 (100mg (n = 7)) | Pain, ≥ G3 (100mg (n = 7)) | Palmar-plantar erythrodysaesthesia syndrome, ≥ G3 (100mg (n = 7)) | Proteinuria, ≥ G3 (100mg (n = 7)) | Pyrexia, All (100mg (n = 7)) | Pyrexia, ≥ G3 (100mg (n = 7)) | Sinus bradycardia, All (100mg (n = 7)) | Sinus bradycardia, ≥ G3 (100mg (n = 7)) | Stomatitis, ≥ G3 (100mg (n = 7)) | Vomiting, All (100mg (n = 7)) | Vomiting, ≥ G3 (100mg (n = 7)) | leukopenia, ≥ G3 (100mg (n = 7)) | neutropenia, ≥ G3 (100mg (n = 7)) | Anaemia, All (150mg (n = 5)) | Anaemia, ≥ G3 (150mg (n = 5)) | Blood chloride decreased, All (150mg (n = 5)) | Blood chloride decreased, ≥ G3 (150mg (n = 5)) | Blood creatinine increased, ≥ G3 (150mg (n = 5)) | Blood potassium decreased, ≥ G3 (150mg (n = 5)) | Blood uric acid increased, ≥ G3 (150mg (n = 5)) | Diarrhea, ≥ G3 (150mg (n = 5)) | Dizziness, All (150mg (n = 5)) | Dizziness, ≥ G3 (150mg (n = 5)) | Dry mouth, All (150mg (n = 5)) | Dry mouth, ≥ G3 (150mg (n = 5)) | Electrocardiogram QT prolonged, ≥ G3 (150mg (n = 5)) | Electrolyte imbalance, ≥ G3 (150mg (n = 5)) | Hemoglobin decreased, ≥ G3 (150mg (n = 5)) | Hyponatremia, All (150mg (n = 5)) | Hyponatremia, ≥ G3 (150mg (n = 5)) | Hypoparathyroidism, ≥ G3 (150mg (n = 5)) | Mouth ulceration, ≥ G3 (150mg (n = 5)) | Nausea, ≥ G3 (150mg (n = 5)) | Oropharyngeal pain, All (150mg (n = 5)) | Oropharyngeal pain, ≥ G3 (150mg (n = 5)) | Pain, All (150mg (n = 5)) | Pain, ≥ G3 (150mg (n = 5)) | Palmar-plantar erythrodysaesthesia syndrome, All (150mg (n = 5)) | Palmar-plantar erythrodysaesthesia syndrome, ≥ G3 (150mg (n = 5)) | Proteinuria, All (150mg (n = 5)) | Proteinuria, ≥ G3 (150mg (n = 5)) | Pyrexia, ≥ G3 (150mg (n = 5)) | Sinus bradycardia, ≥ G3 (150mg (n = 5)) | Vomiting, ≥ G3 (150mg (n = 5)) | neutropenia, ≥ G3 (150mg (n = 5)) | transaminase elevation, ≥ G3 (150mg (n = 5)) | Anaemia, ≥ G3 (All (n = 20)) | Blood chloride decreased, ≥ G3 (All (n = 20)) | Blood creatinine increased, ≥ G3 (All (n = 20)) | Blood potassium decreased, ≥ G3 (All (n = 20)) | Blood uric acid increased, ≥ G3 (All (n = 20)) | Diarrhea, ≥ G3 (All (n = 20)) | Dizziness, ≥ G3 (All (n = 20)) | Dry mouth, ≥ G3 (All (n = 20)) | Electrocardiogram QT prolonged, ≥ G3 (All (n = 20)) | Electrolyte imbalance, ≥ G3 (All (n = 20)) | Hemoglobin decreased, ≥ G3 (All (n = 20)) | Hyponatremia, ≥ G3 (All (n = 20)) | Hypoparathyroidism, ≥ G3 (All (n = 20)) | Mouth ulceration, ≥ G3 (All (n = 20)) | Nausea, ≥ G3 (All (n = 20)) | Oropharyngeal pain, ≥ G3 (All (n = 20)) | Pain, ≥ G3 (All (n = 20)) | Palmar-plantar erythrodysaesthesia syndrome, ≥ G3 (All (n = 20)) | Proteinuria, ≥ G3 (All (n = 20)) | Pyrexia, ≥ G3 (All (n = 20)) | Sinus bradycardia, ≥ G3 (All (n = 20)) | Vomiting, ≥ G3 (All (n = 20)) | neutropenia, ≥ G3 (All (n = 20))
7 (35) n (%): neutropenia, All (All (n = 20))
4 (20) n (%): Hypertension, All (All (n = 20))
35%: TRAE any grade: neutropenia (all patients n = 20)
100 mg: MTD (oral QD)
6 (30) n (%): Decreased appetite, All (All (n = 20)) | Platelet count decreased, All (All (n = 20))
4 (80) n (%): transaminase elevation, All (150mg (n = 5))
5%: grade 3 TRAE: decreased appetite (all patients n = 20) | grade 3 TRAE: decreased blood sodium (all patients n = 20) | grade 3 TRAE: elevated transaminase (all patients n = 20) | grade 3 TRAE: hypertension (all patients n = 20) | grade 3 TRAE: leukopenia (all patients n = 20) | grade 3 TRAE: stomatitis (all patients n = 20)
1 (5) n (%): Anaemia, All (All (n = 20)) | Blood chloride decreased, All (All (n = 20)) | Blood creatinine increased, All (All (n = 20)) | Blood potassium decreased, All (All (n = 20)) | Blood sodium decreased, All (All (n = 20)) | Blood sodium decreased, ≥ G3 (All (n = 20)) | Blood uric acid increased, All (All (n = 20)) | Decreased appetite, ≥ G3 (All (n = 20)) | Dizziness, All (All (n = 20)) | Dry mouth, All (All (n = 20)) | Electrolyte imbalance, All (All (n = 20)) | Hemoglobin decreased, All (All (n = 20)) | Hypertension, ≥ G3 (All (n = 20)) | Hypoparathyroidism, All (All (n = 20)) | Mouth ulceration, All (All (n = 20)) | Oropharyngeal pain, All (All (n = 20)) | Pain, All (All (n = 20)) | Palmar-plantar erythrodysaesthesia syndrome, All (All (n = 20)) | Proteinuria, All (All (n = 20)) | Pyrexia, All (All (n = 20)) | Sinus bradycardia, All (All (n = 20)) | Stomatitis, ≥ G3 (All (n = 20)) | Vomiting, All (All (n = 20)) | leukopenia, ≥ G3 (All (n = 20)) | transaminase elevation, ≥ G3 (All (n = 20))
